Test system: U87 tumor
Assay: PET imaging and tissue biodistribution in U87 tumor-bearing mice
Format: in vivo, mouse
Settings: for Biodistribution: Bladder / Biodistribution: Blood / Biodistribution: Bone / Biodistribution: Fat / Biodistribution: Heart / Biodistribution: Kidney / Biodistribution: Lac.gl / Biodistribution: Liver / Biodistribution: Lung / Biodistribution: Muscle / Biodistribution: Pancreas / Biodistribution: Sal.gl / Biodistribution: Sm.in / Biodistribution: Spleen / Biodistribution: Stomach / Biodistribution: Tumor: in %ID/g
Method: Cell uptake assays, flow cytometry, and IHC were performed as described previously. Banerjee et al., 2019; Nimmagadda et al., 2018. PET imaging and biodistribution Sequential PET imaging and biodistribution studies were conducted to quantify and validate PET imaging data. Briefly, tumor-bearing mice were administrated approximately 7.4 MBq of radiotracer in 150 μL saline via tail-vein injection. They were randomized into the indicated groups of 3-4 mice before radiotracer injection.
In Experiment 1, bilateral xenografts of U87 (right flank) and PSMA+ PC3 PIP (left flank) tumors were established in male NSG mice (n=3), which underwent imaging followed by biodistribution over 24 h. […] A biodistribution study was further conducted with U87 tumors at 2 h post-injection (n=3) to compare the tissue distribution properties of ^64Cu-FP-L1 and ^64Cu-FAPI-04.

[1] = 1 h, NSG mice, U87 tumor, n=3-4
[2] = 1 h block, 10 nmol FAPI-04, NSG mice, U87 tumor
[3] = 2 h (n = 4), NSG mice, U87 tumor

## N#C[C@@H]1CCCN1C(=O)CNC(=O)c1ccnc2ccc(OCCCNC(=O)CCc3cn(CCOCCOCCOCCC(=O)N[C@@H](CCCCNC(=O)CN4CCN(CC(=O)O)CCN(CC(=O)O)CC4)C(=O)NCCCCC(=O)N(CCCC[C@H](NC(=O)N[C@@H](CCC(=O)O)C(=O)O)C(=O)O)Cc4ccc(Br)cc4)nn3)cc12 [^64Cu-FP-L1, metal not drawn]
[1]
  Biodistribution: Bladder: 2.41 ± 0.62
  Biodistribution: Blood: 10.12 ± 3.23
  Biodistribution: Bone: 4.17 ± 0.13
  Biodistribution: Fat: 0.77 ± 0.12
  Biodistribution: Heart: 3.42 ± 2.73
  Biodistribution: Kidney: 21.58 ± 5.33
  Biodistribution: Lac.gl: 5.47 ± 4.13
  Biodistribution: Liver: 5.35 ± 0.43
  Biodistribution: Lung: 5.32 ± 1.42
  Biodistribution: Muscle: 2.29 ± 0.08
  Biodistribution: Pancreas: 7.17 ± 1.19
  Biodistribution: Sal.gl: 12.01 ± 3.62
  Biodistribution: Sm.in: 4.22 ± 1.78
  Biodistribution: Spleen: 2.20 ± 0.54
  Biodistribution: Stomach: 2.51 ± 0.25
  Biodistribution: Tumor: 12.04 ± 2.39
[2]
  Biodistribution: Bladder: 1.22 ± 0.15
  Biodistribution: Blood: 1.38 ± 0.19
  Biodistribution: Bone: 0.72 ± 0.08
  Biodistribution: Fat: 0.31 ± 0.04
  Biodistribution: Heart: 0.94 ± 0.35
  Biodistribution: Kidney: 6.09 ± 0.18
  Biodistribution: Lac.gl: 1.48 ± 0.45
  Biodistribution: Liver: 6.19 ± 1.06
  Biodistribution: Lung: 2.63 ± 0.27
  Biodistribution: Muscle: 0.38 ± 0.05
  Biodistribution: Pancreas: 1.01 ± 0.10
  Biodistribution: Sal.gl: 2.00 ± 0.19
  Biodistribution: Sm.in: 3.00 ± 0.22
  Biodistribution: Spleen: 1.55 ± 0.07
  Biodistribution: Stomach: 1.96 ± 0.07
  Biodistribution: Tumor: 4.37 ± 0.70
[3]
  Biodistribution: Bladder: 2.68 ± 0.83
  Biodistribution: Blood: 9.93 ± 2.13
  Biodistribution: Bone: 5.36 ± 1.89
  Biodistribution: Fat: 0.66 ± 0.52
  Biodistribution: Heart: 4.62 ± 0.68
  Biodistribution: Kidney: 26.85 ± 7.39
  Biodistribution: Lac.gl: 8.11 ± 1.24
  Biodistribution: Liver: 6.15 ± 0.65
  Biodistribution: Lung: 5.65 ± 1.54
  Biodistribution: Muscle: 2.10 ± 0.13
  Biodistribution: Pancreas: 5.98 ± 0.58
  Biodistribution: Sal.gl: 8.96 ± 1.47
  Biodistribution: Sm.in: 6.12 ± 1.91
  Biodistribution: Spleen: 2.68 ± 0.62
  Biodistribution: Stomach: 2.19 ± 0.33
  Biodistribution: Tumor: 14.65 ± 3.68
2 h, bilateral U87 / PSMA+ PC3 PIP model
  Tumor uptake, FAP+ U87 tumor: 16.96±5.01 % ID/g
2 h, blocking with FAPI-04 (500 nmol/kg)
  Uptake in U87 tumor with FAP blockade: 2.47±0.82 % ID/g
2 h Nude mice (n = 4)
  Biodistribution: Bladder: 1.80 ± 0.24
  Biodistribution: Blood: 6.50 ± 1.05
  Biodistribution: Bone: 3.51 ± 0.45
  Biodistribution: Fat: 0.86 ± 0.03
  Biodistribution: Heart: 2.77 ± 0.25
  Biodistribution: Kidney: 11.66 ± 0.95
  Biodistribution: Lac.gl: 5.44 ± 0.78
  Biodistribution: Liver: 4.16 ± 0.66
  Biodistribution: Lung: 4.37 ± 0.48
  Biodistribution: Muscle: 1.80 ± 0.26
  Biodistribution: Pancreas: 5.04 ± 0.36
  Biodistribution: Sal.gl: 5.60 ± 0.94
  Biodistribution: Sm.in: 4.33 ± 1.13
  Biodistribution: Spleen: 1.88 ± 0.35
  Biodistribution: Stomach: 2.02 ± 0.22
  Biodistribution: Tumor: 7.25 ± 1.24
4 h, NSG mice, U87 tumor
  Biodistribution: Bladder: 1.72 ± 0.33
  Biodistribution: Blood: 3.91 ± 0.73
  Biodistribution: Bone: 2.39 ± 0.37
  Biodistribution: Fat: 0.53 ± 0.10
  Biodistribution: Heart: 2.13 ± 0.17
  Biodistribution: Kidney: 16.57 ± 2.68
